Laboratory results reported in US8975249B2, “Heterocyclic compounds and uses thereof” (Celgene Avilomics Research, Inc., priority 2010, dated 2015).
Like-named read-outs stand apart in the source and are kept apart here.

Assays:
[1] = system: HCC827 cells (EGFR delE746-A750); test: Cell proliferation (CellTiter Glo), HCC827 cells
Protocol: (§7) Cells were plated in Growth Media supplemented with 5% FBS and 1% P/S at a density of 3,000 cells per well in 96 well tissue culture plates (Corning). […] Growth inhibition (GI50) values were determined by Graph Pad Prism.

[2] = target: EGFR (WT) (Homo sapiens (Human), UniProt P00533); test: Omnia biochemical assay, EGFR-WT active enzyme; settings: [EGFR-WT]=5 nM, [ATP]=15 uM, 30 min pre-incubation
EGFR (WT), sequence (P00533 25-1210): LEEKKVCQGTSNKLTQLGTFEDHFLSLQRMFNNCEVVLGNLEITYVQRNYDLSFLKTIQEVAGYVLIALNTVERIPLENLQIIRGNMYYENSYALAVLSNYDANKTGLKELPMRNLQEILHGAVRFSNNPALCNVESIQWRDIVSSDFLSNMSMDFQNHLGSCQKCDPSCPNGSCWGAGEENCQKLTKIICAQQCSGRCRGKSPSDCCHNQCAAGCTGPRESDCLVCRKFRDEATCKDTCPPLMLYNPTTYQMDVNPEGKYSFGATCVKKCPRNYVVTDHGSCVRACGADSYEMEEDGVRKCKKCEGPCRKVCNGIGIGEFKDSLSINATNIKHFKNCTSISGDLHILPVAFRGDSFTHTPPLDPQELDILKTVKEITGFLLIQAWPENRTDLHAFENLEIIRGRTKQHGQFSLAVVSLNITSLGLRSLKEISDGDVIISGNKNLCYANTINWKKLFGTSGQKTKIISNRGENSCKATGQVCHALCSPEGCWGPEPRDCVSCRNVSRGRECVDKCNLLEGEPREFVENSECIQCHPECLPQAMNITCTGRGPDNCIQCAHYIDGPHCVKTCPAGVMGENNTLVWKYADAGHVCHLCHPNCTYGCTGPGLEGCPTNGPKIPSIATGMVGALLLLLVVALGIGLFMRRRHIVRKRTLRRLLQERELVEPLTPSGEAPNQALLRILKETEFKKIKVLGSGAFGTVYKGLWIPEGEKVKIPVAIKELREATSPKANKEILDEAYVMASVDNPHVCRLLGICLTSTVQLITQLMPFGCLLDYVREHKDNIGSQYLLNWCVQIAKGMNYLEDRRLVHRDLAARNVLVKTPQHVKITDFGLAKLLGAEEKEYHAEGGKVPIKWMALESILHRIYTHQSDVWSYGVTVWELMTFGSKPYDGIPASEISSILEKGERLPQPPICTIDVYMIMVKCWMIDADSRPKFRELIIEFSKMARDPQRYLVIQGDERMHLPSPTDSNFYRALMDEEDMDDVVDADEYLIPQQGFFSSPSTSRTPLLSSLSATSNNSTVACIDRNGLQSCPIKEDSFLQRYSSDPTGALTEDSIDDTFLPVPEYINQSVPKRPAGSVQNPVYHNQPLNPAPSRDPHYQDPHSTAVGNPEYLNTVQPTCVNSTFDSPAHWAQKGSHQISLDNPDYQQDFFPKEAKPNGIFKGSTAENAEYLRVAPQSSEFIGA
Protocol: Kinase reactions were started with the addition of 45 μL of the ATP/Tyr-Sox peptide substrate mix and monitored every 71 seconds for 60 minutes at λex360/λem485 in a Synergy^4 plate reader from BioTek (Winooski, Vt.).
The compound numbers correspond to the compound numbers in Table 1.

[3] = system: H1975 cells (EGFR L858R/T790M); test: Cell proliferation (CellTiter Glo), H1975 cells
Protocol: as §7

[4] = target: WT EGFR (A431 cells) (Homo sapiens (Human), UniProt P00533); test: Phospho-EGFR signaling immunoblot in A431 cells (WT EGFR); assay type: cell-based; settings: 1 hr treatment, EGF stimulated, phospho-EGFR (Y1068)
WT EGFR (A431 cells), sequence (P00533 25-1210): as above
Protocol: (§1) A431 human epidermoid carcinoma, H1975 human NSCLC and HCC827 human NSCLC adenocarcinoma cells were obtained from the American Type Culture Center (Manassas, Va.). A431 cells were grown in DMEM (Invitrogen, Carlsbad, Calif.) supplemented with 10% FBS (HyClone, South Logan, Utah) and 1% Penicillin-Streptomycin (P/S, Lonza, Walkersville, Md.).
(§2) All primary antibodies were obtained from Cell Signaling (Danvers, Mass.) and used at 1:1000. Secondary antibodies were used at 1:10,000. Goat anti-mouse IgG IRDye 800CW antibody was obtained from LiCor Biosciences (Lincoln, Nebr.) and goat anti-rabbit IgG Alexa Fluor 680 was obtained from Invitrogen.
(§3) Cells were grown in 12-well plates (Corning, Coring, N.Y.) to 90% confluence and then incubated in low-serum (0.1% FBS) media for 16-18 hr. […] A431 cells were then stimulated with 50 ng/ml EGF (Peprotech, Rocky Hill, N.J.) for 15 min. After treatment, cell monolayers were washed with cold PBS (Invitrogen) and immediately lysed by scrapping into 60 uL cold Cell Extraction Buffer (Invitrogen) supplemented with Complete Protease inhibitors (Roche, Indianapolis, Ind.) and PhosphoSTOP (Roche) phosphatase inhibitors.
(§4) Phospho-protein signals were quantitated using Odyssey Infrared Imaging (Li-Cor Biosciences).
(§5) To assess phosphor-EGFR signaling, blots were probed with rabbit anti-Phospho-EGFR (Y1068) and mouse total anti-EGFR antibodies. Phospho-EGFR signal was normalized to total EGFR expression for each sample. […] Normalized data was fitted using a sigmoidal curve analysis program (Graph Pad Prism version 5) with variable Hill slope to determine the EC50 values.
(§6) The compound numbers recited in Table 4 correspond to the compound numbers in Table 1.

[5] = target: EGFR double mutation L858R/T790M (H1975 cells) (Homo sapiens (Human), UniProt P00533, L858R/T790M); test: Phospho-EGFR signaling immunoblot in H1975 cells; assay type: cell-based; settings: H1975 cells, 1 hr treatment, phospho-EGFR (Y1068)
EGFR double mutation L858R/T790M (H1975 cells), sequence (P00533 25-1210 T790M/L858R): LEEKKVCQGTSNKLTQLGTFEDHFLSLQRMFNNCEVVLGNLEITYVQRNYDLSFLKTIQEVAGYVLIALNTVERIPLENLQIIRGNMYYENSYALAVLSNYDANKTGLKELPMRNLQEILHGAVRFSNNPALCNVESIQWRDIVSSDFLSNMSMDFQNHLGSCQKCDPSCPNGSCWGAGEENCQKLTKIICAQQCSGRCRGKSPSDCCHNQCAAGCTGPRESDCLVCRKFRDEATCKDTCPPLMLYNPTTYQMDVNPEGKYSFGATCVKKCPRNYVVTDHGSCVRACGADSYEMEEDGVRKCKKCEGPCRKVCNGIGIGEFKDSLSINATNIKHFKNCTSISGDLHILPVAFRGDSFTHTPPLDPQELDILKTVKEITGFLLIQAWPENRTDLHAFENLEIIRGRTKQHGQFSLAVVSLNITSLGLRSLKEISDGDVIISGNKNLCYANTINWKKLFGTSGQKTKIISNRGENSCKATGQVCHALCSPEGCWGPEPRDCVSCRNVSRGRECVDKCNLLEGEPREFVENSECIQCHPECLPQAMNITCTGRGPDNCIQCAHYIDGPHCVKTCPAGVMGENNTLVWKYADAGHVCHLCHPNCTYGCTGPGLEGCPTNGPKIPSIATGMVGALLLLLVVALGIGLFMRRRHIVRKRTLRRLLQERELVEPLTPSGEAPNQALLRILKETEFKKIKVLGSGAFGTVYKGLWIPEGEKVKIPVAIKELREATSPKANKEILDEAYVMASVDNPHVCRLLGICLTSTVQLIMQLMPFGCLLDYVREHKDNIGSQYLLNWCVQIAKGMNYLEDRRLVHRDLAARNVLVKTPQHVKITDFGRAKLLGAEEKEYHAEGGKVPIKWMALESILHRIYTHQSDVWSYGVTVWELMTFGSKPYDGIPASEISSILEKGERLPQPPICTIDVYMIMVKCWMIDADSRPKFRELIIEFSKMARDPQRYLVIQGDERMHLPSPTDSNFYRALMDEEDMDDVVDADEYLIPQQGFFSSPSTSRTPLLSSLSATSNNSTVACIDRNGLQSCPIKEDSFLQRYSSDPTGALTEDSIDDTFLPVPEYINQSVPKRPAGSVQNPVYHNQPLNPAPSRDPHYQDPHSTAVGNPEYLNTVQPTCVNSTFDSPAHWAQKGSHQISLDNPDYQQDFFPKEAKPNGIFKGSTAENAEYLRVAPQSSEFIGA
Protocol: as §1, §2, §3, §4, §5, §6

[6] = proliferation GI50 WT EGFR / HCC827
[7] = proliferation GI50 WT EGFR / H1975

Row | SMILES | Ratio WT/mutant (HCC827) [1] | IC50 [2] [nM] | Ratio WT/mutant (H1975) [3] | Ratio WT/mutant (HCC827) [1, 6] | EC50 [4] [nM] | Ratio WT/mutant (H1975) [3, 7] | EC50 [5] [nM]
1 | C=CC(=O)Nc1cccc(Oc2nc(Nc3ccc(N4CCN(C(=O)OC)CC4)cc3OC)ncc2C(F)(F)F)c1 [Compound I-20, methyl 4-(4-(4-(3-acrylamidophenoxy)-5-(trifluoromethyl)pyrimidin-2-ylamino)-3-methoxyphenyl)piperazine-1-carboxylate] | >15 | 10 to 30 | >5 | – | – | – | –
2 | C=CC(=O)Nc1cccc(Nc2nc(Nc3ccc(N4CCN(C(=O)CC)CC4)cc3OC)ncc2C(F)(F)F)c1 [Compound I-35, N-(3-(2-(2-methoxy-4-(4-propionylpiperazin-1-yl)phenylamino)-5-(trifluoromethyl)pyrimidin-4-ylamino)phenyl)acrylamide] | – | 1 to 10 | – | >25 | > 1000 | >10 | < 10
3 | C=CC(=O)Nc1cccc(Oc2nc(Nc3ccc(N4CCOCC4)cc3OC(F)F)ncc2Cl)c1 [Compound I-36, N-(3-(5-chloro-2-(2-(difluoromethoxy)-4-morpholinophenylamino)pyrimidin-4-yloxy)phenyl)acrylamide] | – | 10 to 30 | – | >50 | – | >25 | –
4 | C=CC(=O)Nc1cccc(Nc2nc(Nc3ccc(N4CCCOCC4)cc3OC)ncc2C(F)(F)F)c1 [Compound I-38, N-(3-(2-(2-methoxy-4-(1,4-oxazepan-4-yl)phenylamino)-5-(trifluoromethyl)pyrimidin-4-ylamino)phenyl)acrylamide] | – | 10 to 30 | – | >5 | – | >1 | –
5 | C=CC(=O)Nc1cccc(Oc2nc(Nc3ccc(N4CCN(C(=O)OC(C)(C)C)CC4)cc3OCC)ncc2Cl)c1 [Compound I-18, tert-butyl 4-(4-(4-(3-acrylamidophenoxy)-5-chloropyrimidin-2-ylamino)-3-ethoxyphenyl)piperazine-1-carboxylate] | – | > 1000 | – | >5 | – | >1 | –
6 | C=CC(=O)Nc1cccc(Nc2nc(Nc3ccc(N4CCN(C(=O)OC(C)(C)C)[C@H](C(=O)OC)C4)cc3OC)ncc2C(F)(F)F)c1 [Compound I-50, (S)-1-tert-butyl 2-methyl 4-(4-(4-(3-acrylamidophenylamino)-5-(trifluoromethyl)pyrimidin-2-ylamino)-3-methoxyphenyl)piperazine-1,2-dicarboxylate] | – | – | – | >50 | – | >10 | –
7 | C=CC(=O)Nc1cccc(Oc2nc(Nc3ccc(N4CCN(C(C)=O)CC4)cc3OC)ncc2Cl)c1 [Compound I-9, N-(3-(2-(4-(4-acetylpiperazin-1-yl)-2-methoxyphenylamino)-5-chloropyrimidin-4-yloxy)phenyl)acrylamide] | – | 1 to 10 | – | >50 | > 1000 | >5 | –
8 | C=CC(=O)Nc1cccc(Nc2nc(Nc3ccc(N4CCCN(C(=O)C(F)(F)F)CC4)cc3OC)ncc2C(F)(F)F)c1 [Compound I-19, N-(3-(2-(2-methoxy-4-(4-(2,2,2-trifluoroacetyl)-1,4-diazepan-1-yl)phenylamino)-5-(trifluoromethyl)pyrimidin-4-ylamino)phenyl)acrylamide] | – | 100 to 300 | – | >10 | – | >5 | –
9 | C=CC(=O)Nc1cccc(Oc2nc(Nc3ccc(N4CCN(C(=O)OC(C)(C)C)CC4)cc3OC(F)(F)F)ncc2Cl)c1 [Compound I-47, tert-butyl 4-(4-(4-(3-acrylamidophenoxy)-5-chloropyrimidin-2-ylamino)-3-(trifluoromethoxy)phenyl)piperazine-1-carboxylate] | – | > 1000 | – | – | – | – | –
10 | C=CC(=O)Nc1cccc(Nc2nc(Nc3ccc(N4CCN(C(=O)NC)CC4)cc3OC)ncc2C(F)(F)F)c1 [Compound I-28, 4-(4-(4-(3-acrylamidophenylamino)-5-(trifluoromethyl)pyrimidin-2-ylamino)-3-methoxyphenyl)-N-methylpiperazine-1-carboxamide] | – | 1 to 10 | – | >50 | – | >5 | –
11 | C=CC(=O)Nc1cccc(Nc2nc(Nc3ccc(N4CCN(C(C)=O)CC4)cc3OC(F)F)ncc2C(F)(F)F)c1 [Compound I-32, N-(3-(2-(4-(4-acetylpiperazin-1-yl)-2-(difluoromethoxy)phenylamino)-5-(trifluoromethyl)pyrimidin-4-ylamino)phenyl)acrylamide] | – | < 1 | – | – | – | – | –
12 | C=CC(=O)Nc1cccc(Oc2nc(Nc3ccc(N4CCCOCC4)cc3OC)ncc2Cl)c1 [Compound I-37, N-(3-(5-chloro-2-(2-methoxy-4-(1,4-oxazepan-4-yl)phenylamino)pyrimidin-4-yloxy)phenyl)acrylamide] | – | 30 to 100 | – | >10 | – | >1 | –
13 | C=CC(=O)Nc1cccc(Oc2nc(Nc3ccc(N4CCN(S(N)(=O)=O)CC4)cc3OC)ncc2C(F)(F)F)c1 [Compound I-27, N-(3-(2-(2-methoxy-4-(4-sulfamoylpiperazin-1-yl)phenylamino)-5-(trifluoromethyl)pyrimidin-4-yloxy)phenyl)acrylamide] | – | 1 to 10 | – | >10 | > 1000 | >1 | –
14 | C=CC(=O)Nc1cccc(Oc2nc(Nc3ccc(N4CCN(C(=O)CC(C)(C)C)CC4)cc3OC)ncc2Cl)c1 [Compound I-23, N-(3-(5-chloro-2-(4-(4-(3,3-dimethylbutanoyl)piperazin-1-yl)-2-methoxyphenylamino)pyrimidin-4-yloxy)phenyl)acrylamide] | – | 100 to 300 | – | >20 | – | >1 | –
15 | C=CC(=O)Nc1cccc(Oc2nc(Nc3ccc(N4CCCN(C(=O)OC(C)(C)C)CC4)cc3OC)ncc2C(F)(F)F)c1 [Compound I-39, tert-butyl 4-(4-(4-(3-acrylamidophenoxy)-5-(trifluoromethyl)pyrimidin-2-ylamino)-3-methoxyphenyl)-1,4-diazepane-1-carboxylate] | – | > 1000 | – | >1 | – | <1 | –
16 | C=CC(=O)Nc1cccc(Oc2nc(Nc3ccc(N4CCCN(C(=O)OC(C)(C)C)CC4)cc3OC)ncc2Cl)c1 [Compound I-43, tert-butyl 4-(4-(4-(3-acrylamidophenoxy)-5-chloropyrimidin-2-ylamino)-3-methoxyphenyl)-1,4-diazepane-1-carboxylate] | – | 300 to 1000 | – | – | – | – | –
17 | C=CC(=O)Nc1cccc(Oc2nc(Nc3ccc(N4CCOCC4)cc3OC(F)F)ncc2C(F)(F)F)c1 [Compound I-13, N-(3-(2-(2-(difluoromethoxy)-4-morpholinophenylamino)-5-(trifluoromethyl)pyrimidin-4-yloxy)phenyl)acrylamide] | – | 30 to 100 | – | >50 | – | >10 | 10 to 100
18 | C=CC(=O)Nc1cccc(Nc2nc(Nc3ccc(N4CCN(C(=O)OC)CC4)cc3OC)ncc2C(F)(F)F)c1 [Compound I-29, methyl 4-(4-(4-(3-acrylamidophenylamino)-5-(trifluoromethyl)pyrimidin-2-ylamino)-3-methoxyphenyl)piperazine-1-carboxylate] | – | 10 to 30 | – | >15 | > 1000 | >10 | –
19 | C=CC(=O)Nc1cccc(Nc2nc(Nc3ccc(N4CCN(C(=O)CO)CC4)cc3OC(F)F)ncc2C(F)(F)F)c1 [Compound I-31, N-(3-(2-(2-(difluoromethoxy)-4-(4-(2-hydroxyacetyl)piperazin-1-yl)phenylamino)-5-(trifluoromethyl)pyrimidin-4-ylamino)phenyl)acrylamide] | – | < 1 | – | – | – | – | –
20 | C=CC(=O)Nc1cccc(Oc2nc(Nc3ccc(N4CCN(C(=O)OC(C)(C)C)CC4)cc3OC)ncc2C(F)(F)F)c1 [Compound I-42, tert-butyl 4-(4-(4-(3-acrylamidophenoxy)-5-(trifluoromethyl)pyrimidin-2-ylamino)-3-methoxyphenyl)piperazine-1-carboxylate] | – | 300 to 1000 | – | – | – | – | –
